ChEMBL document CHEMBL1201862, “PubChem BioAssay data set” (2004)
Calls of active or inactive are those of the source.

Legend:
[1] = target: E3 ubiquitin-protein ligase Mdm2 (Homo sapiens, UniProt Q00987); assay: MDM2-luc reporter signal enhancers, multi-concentration potency testing, MDM2 ubiquitin-protein ligase inhibitor program, whole-cell format, luminescence detection, 384-well microplate (AID 1394); type: functional;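 note: MDM2 E3 inhibitors raise luminescence so EC50 is for signal enhancement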
Genome polyprotein = Genome polyprotein (Hepatitis C virus, UniProt Q2Q167); assay: disruption of hepatitis C core self-association – biochemical, TR-FRET, dose response (AID 2159); parameters: species or system Hepacivirus hominis;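 note: blocks dimerization of HCV core protein measured by TR-FRET between tagged core106 pairs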
[2] = target: Protein-tyrosine kinase 2-beta (Homo sapiens, UniProt Q14289);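 note: potency of inhibitors of PYK2 kinase phosphorylation of poly-GT substrate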
[3] = target: T1, RNA-binding protein pos-1 (Caenorhabditis elegans, UniProt G5EF15); assay: disruptors of C. elegans POS-1 RNA interaction – biochemical, fluorescence polarization, dose response (AID 1964);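 note: purified POS-1 fused to maltose binding protein made in E. coli; potency of compounds blocking POS-1 binding to fluorescent RNA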
T1 sequence (G5EF15 whole entry): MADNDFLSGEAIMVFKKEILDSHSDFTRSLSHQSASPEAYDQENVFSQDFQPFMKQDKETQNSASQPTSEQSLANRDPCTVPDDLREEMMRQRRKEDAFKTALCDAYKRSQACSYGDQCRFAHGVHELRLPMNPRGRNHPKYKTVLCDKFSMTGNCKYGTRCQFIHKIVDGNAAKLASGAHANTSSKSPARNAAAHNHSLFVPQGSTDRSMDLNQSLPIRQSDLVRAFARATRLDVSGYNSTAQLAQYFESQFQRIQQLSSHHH

Large T antigen = Large T antigen (Simian virus 40, UniProt P03070); type: functional, Betapolyomavirus macacae;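 note: Confirmatory-stage PubChem screen for compounds that inhibit SV40 T antigen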
[4] = target: T2, Zinc finger protein mex-5 (Caenorhabditis elegans, UniProt Q9XUB2); assay: potency of MEX-5 RNA-binding blockers – biochemical, C. elegans, fluorescence polarization, dose response (AID 1960)
T2 sequence (Q9XUB2 whole entry): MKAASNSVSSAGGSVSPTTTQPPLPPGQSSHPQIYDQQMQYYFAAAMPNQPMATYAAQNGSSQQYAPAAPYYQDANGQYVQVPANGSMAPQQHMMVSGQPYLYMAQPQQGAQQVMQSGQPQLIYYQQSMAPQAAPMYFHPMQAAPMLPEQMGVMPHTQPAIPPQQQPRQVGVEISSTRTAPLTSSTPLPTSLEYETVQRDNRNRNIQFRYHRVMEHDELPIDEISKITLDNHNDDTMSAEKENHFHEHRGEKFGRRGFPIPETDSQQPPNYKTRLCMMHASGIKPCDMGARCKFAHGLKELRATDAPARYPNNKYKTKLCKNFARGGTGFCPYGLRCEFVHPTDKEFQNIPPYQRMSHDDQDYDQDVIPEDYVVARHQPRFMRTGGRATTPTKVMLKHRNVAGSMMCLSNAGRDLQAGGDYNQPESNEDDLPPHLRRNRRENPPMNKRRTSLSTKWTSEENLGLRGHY

[5] = target: Peroxisome proliferator-activated receptor gamma/Nuclear receptor corepressor 2 (Homo sapiens, UniProt P37231+Q9Y618); assay: Counterscreen for NR2E3 inverse agonists: TR-FRET-based biochemical high throughput dose response assay to identify inverse agonists of the interaction between peroxisome proliferator-activated receptor gamma (PPARg) and nuclear receptor co-repressor 2 (NCOR2).; type: functional
[6] = target: Photoreceptor-specific nuclear receptor (Homo sapiens, UniProt Q9Y5X4); assay: ligands suppressing NR2E3 nuclear receptor activity – biochemical, TR-FRET, dose response (AID 463256); type: functional
[7] = target: Sphingosine 1-phosphate receptor 2 (Homo sapiens, UniProt O95136); assay: Dose Response Cell Based Assay for Antagonists of the S1P2 Receptor. [Related pubchem assays: 856, 736 ]; type: functional
[8] = Luminescence Cell-Based Dose Confirmation HTS to Identify Inhibitors of Polyadenylation.; type: functional
[9] = Luminescence Cell-Based Dose Confirmation HTS to Identify Activators of 5'UTR Stem-Loop Driven Alpha-Synuclein mRNA Translation in H4 Neuroglioblastoma Cells. [Related pubchem assays: 1829 (Project Summary), 1814 (Primary HTS)]; type: functional
H4 = assay: Luminescence Cell-Based Dose Response HTS to Identify Activators of 5'UTR Stem-Loop Driven Prion Protein mRNA Translation in H4 Neuroglioblastoma Cells. [Related pubchem assays: 1829 (Project Summary), 1814 (Primary HTS)]; type: functional; settings: Homo sapiens
[10] = Luminescent dose response cell-based high throughput screening assay for inhibitors of the Janus kinase 2 mutant JAK2V617F. [Related pubchem assays: 1446 (Primary screen.), 1521 (Confirmation assay.), 1486 (Counter screen.)]; type: functional
[11] = Luminescence Cell-Based Dose Response HTS to Identify Activators of Luciferase Translation or Activity in H4 […] Cells. [Related pubchem assays: 1829 (Project Summary), 1814 (Primary HTS)]; type: functional
Bcl-2-related protein A1 [12] = target: T3, Bcl-2-related protein A1 (Mus musculus, UniProt Q07440); assay: small-molecule antagonists of Bfl-1/BH3 interaction – biochemical, TR-FRET, mouse Bfl-1, confirmation (AID 621);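 note: TR-FRET binding of GST-Bfl-1 to FITC-labelled Bid peptide via terbium antibody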
T3 sequence (Q07440 whole entry): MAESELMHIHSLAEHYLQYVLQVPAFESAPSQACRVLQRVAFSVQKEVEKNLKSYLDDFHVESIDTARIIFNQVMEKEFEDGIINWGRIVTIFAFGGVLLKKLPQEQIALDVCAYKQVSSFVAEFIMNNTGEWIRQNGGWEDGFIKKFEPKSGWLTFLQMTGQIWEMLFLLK

Bcl-2-related protein A1 [13] = target: T3, Bcl-2-related protein A1; assay: Bfl-1 binding inhibitors, SAR follow-up, biochemical, fluorescence polarization (AID 1070)
[14] = target: Glyceraldehyde-3-phosphate dehydrogenase (Homo sapiens, UniProt P04406)
Sequence of Glyceraldehyde-3-phosphate dehydrogenase (P04406 whole entry): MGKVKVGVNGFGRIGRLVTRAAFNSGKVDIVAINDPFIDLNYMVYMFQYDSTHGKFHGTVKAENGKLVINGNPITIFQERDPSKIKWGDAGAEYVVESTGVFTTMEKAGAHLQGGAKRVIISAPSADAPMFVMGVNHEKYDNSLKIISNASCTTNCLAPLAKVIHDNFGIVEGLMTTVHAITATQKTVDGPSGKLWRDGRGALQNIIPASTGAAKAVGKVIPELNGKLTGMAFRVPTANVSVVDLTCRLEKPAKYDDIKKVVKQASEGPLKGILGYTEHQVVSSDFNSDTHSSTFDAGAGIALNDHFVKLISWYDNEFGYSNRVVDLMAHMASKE

Sequence of Sphingosine 1-phosphate receptor 2 (O95136 whole entry): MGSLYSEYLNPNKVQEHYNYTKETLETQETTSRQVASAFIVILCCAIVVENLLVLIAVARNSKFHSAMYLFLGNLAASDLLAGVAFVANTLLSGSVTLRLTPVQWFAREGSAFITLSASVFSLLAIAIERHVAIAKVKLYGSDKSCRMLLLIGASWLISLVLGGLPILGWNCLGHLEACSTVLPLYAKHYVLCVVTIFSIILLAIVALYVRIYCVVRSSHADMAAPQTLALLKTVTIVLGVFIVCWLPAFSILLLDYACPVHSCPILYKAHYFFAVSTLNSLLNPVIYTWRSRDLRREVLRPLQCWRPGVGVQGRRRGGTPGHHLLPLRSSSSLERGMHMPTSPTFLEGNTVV
Sequence of Peroxisome proliferator-activated receptor gamma/Nuclear receptor corepressor 2 (P37231 whole entry): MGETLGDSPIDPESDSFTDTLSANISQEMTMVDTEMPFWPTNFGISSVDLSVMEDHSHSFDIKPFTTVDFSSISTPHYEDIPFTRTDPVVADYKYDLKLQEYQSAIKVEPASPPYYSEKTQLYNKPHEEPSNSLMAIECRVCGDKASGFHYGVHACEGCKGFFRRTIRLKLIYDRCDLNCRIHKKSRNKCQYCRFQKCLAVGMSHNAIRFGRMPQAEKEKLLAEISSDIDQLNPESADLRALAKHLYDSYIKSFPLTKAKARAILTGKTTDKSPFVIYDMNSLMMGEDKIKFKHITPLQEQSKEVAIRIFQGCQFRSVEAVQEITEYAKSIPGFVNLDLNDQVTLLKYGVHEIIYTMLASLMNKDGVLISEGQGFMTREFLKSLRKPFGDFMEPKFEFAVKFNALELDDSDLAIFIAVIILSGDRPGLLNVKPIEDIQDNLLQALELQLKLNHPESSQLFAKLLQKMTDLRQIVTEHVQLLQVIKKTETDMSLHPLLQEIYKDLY
Sequence of Peroxisome proliferator-activated receptor gamma/Nuclear receptor corepressor 2 (Q9Y618 whole entry): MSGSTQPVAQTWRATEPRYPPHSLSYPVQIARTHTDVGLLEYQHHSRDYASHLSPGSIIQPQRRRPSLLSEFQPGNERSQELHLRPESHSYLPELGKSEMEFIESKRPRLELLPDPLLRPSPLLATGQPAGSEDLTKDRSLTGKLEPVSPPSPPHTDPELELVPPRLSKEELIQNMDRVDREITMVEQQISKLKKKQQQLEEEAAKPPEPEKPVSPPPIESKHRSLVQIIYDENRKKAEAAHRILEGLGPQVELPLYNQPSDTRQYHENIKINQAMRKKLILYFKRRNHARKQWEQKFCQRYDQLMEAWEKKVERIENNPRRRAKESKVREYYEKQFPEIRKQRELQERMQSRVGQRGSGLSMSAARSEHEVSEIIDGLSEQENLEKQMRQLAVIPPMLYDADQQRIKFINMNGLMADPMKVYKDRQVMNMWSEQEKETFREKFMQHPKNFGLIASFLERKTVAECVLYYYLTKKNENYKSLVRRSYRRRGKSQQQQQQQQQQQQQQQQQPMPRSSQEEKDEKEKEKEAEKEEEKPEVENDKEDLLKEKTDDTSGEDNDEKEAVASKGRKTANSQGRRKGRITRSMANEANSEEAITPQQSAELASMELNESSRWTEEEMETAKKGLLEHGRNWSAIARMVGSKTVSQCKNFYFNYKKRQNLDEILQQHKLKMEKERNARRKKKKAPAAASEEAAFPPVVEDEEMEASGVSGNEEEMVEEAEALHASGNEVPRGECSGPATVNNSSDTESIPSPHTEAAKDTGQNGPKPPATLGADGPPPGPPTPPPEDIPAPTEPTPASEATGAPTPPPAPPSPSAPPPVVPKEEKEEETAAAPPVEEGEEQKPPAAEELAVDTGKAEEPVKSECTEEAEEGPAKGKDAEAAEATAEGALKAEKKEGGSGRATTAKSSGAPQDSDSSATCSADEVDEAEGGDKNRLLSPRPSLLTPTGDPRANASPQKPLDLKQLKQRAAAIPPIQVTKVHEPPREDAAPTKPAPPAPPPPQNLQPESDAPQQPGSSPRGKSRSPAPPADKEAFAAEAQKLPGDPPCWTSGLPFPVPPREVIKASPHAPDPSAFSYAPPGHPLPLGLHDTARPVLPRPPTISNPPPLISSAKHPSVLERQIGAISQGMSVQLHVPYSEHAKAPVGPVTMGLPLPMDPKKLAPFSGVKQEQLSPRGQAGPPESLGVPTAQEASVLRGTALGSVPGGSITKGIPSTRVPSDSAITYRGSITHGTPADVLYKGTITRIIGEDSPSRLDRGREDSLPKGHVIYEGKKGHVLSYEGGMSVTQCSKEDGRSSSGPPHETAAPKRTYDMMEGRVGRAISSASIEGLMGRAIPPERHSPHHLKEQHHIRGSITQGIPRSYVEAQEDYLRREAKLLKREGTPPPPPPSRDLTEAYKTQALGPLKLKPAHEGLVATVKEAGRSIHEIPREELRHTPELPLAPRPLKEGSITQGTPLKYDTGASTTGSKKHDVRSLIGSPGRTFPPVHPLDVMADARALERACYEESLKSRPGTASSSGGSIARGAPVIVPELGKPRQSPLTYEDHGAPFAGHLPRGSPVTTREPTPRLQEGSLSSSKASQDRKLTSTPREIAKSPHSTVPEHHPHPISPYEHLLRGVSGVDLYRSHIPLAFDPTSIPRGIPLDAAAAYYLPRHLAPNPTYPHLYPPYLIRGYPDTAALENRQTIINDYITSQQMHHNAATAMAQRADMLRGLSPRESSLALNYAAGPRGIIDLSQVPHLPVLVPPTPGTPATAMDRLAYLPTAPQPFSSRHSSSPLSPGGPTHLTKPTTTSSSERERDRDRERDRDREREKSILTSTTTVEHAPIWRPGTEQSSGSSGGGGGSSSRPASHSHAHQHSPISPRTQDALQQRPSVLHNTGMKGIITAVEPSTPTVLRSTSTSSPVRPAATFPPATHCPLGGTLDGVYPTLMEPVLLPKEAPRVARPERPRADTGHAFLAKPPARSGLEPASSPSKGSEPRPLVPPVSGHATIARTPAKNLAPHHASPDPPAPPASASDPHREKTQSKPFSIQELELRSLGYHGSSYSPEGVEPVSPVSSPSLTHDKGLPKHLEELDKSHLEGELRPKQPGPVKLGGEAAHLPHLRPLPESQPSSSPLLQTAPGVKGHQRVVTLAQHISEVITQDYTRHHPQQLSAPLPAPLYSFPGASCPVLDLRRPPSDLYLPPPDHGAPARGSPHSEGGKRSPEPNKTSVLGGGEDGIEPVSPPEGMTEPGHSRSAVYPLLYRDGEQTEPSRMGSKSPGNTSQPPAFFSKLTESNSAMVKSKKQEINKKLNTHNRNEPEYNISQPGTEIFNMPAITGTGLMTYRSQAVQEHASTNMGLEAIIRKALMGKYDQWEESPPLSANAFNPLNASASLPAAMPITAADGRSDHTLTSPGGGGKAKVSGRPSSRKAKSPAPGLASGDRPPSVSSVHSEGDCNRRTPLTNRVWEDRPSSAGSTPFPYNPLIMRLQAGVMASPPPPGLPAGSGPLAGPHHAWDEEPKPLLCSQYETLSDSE
Sequence of Genome polyprotein (Q2Q167 whole entry): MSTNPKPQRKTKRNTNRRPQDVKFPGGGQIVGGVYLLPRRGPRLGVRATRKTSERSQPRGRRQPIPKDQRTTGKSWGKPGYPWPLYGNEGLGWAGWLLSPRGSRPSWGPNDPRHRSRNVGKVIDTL
Sequence of E3 ubiquitin-protein ligase Mdm2 (Q00987 whole entry): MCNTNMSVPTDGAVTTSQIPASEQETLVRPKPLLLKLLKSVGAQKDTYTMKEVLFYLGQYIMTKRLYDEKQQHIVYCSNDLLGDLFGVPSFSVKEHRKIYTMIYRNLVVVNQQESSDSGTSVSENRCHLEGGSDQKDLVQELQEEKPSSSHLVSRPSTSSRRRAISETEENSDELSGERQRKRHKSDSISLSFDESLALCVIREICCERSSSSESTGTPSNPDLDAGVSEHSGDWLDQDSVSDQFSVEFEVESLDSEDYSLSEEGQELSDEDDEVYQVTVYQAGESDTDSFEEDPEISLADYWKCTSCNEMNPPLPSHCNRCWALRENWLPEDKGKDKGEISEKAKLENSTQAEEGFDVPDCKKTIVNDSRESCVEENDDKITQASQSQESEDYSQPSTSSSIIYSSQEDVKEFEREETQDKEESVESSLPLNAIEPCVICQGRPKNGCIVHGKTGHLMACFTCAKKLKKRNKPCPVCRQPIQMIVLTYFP
Sequence of Large T antigen (P03070 whole entry): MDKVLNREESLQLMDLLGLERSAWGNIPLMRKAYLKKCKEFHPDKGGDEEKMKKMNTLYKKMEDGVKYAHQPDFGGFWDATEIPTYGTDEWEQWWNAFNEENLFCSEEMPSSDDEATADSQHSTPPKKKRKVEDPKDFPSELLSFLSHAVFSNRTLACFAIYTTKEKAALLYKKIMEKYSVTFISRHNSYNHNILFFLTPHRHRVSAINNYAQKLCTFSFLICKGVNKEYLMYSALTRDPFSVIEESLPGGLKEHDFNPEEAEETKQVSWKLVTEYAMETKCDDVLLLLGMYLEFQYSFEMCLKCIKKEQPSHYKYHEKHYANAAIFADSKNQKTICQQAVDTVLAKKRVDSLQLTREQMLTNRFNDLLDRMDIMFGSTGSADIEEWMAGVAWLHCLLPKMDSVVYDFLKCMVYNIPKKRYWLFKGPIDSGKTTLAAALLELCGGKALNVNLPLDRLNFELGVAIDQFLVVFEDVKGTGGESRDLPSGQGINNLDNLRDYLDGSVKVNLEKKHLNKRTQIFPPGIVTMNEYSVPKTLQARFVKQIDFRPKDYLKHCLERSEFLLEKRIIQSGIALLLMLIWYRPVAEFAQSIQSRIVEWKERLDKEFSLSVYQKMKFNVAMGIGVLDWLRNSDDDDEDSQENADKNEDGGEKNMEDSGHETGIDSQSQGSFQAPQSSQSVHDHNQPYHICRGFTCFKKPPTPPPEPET

For `COc1ccc2[nH]c(C(=O)O)c(CCNC(C)=O)c2c1`, the EC50 [1] was 0.39 µM (not active).
In the case of `COc1ccc(N2CCN(C(=O)c3ccc4c(c3)NC(=O)C(CSCc3ccc(C)cc3)N4)CC2)cc1` (configuration not stated), the IC50 (Genome polyprotein) is reported as > 49.8 µM (not active).
For `Oc1ccc2ccccc2c1/C=N/c1ccc(N2CCOCC2)cc1`, the IC50 [2] was 10.6 µM (not active), the EC50 [3] was > 300 µM (not active) and the IC50 (Large T antigen) was 36 µM (active). For the same compound, the EC50 [4] was > 300 µM (not active).
In the case of `Cc1cc2c(s1)c1cnn(CC(=O)NCCc3ccccc3)c(=O)c1n2C`, the IC50 [5] is reported as 2.65 µM (active) and the IC50 [6] is reported as 2.52 µM (active).
In the case of `O=C(O)c1sc2cc(C(F)(F)F)cnc2c1-c1ccco1`, the IC50 [7] is reported as > 30 µM (not active).
In the case of `COc1ccc2no[n+]([O-])c2c1`, the EC50 [8] is reported as > 120 µM (not active).
In the case of `Cc1nc(O)c(C(=O)/C=C/c2ccccc2F)c2c1CCCC2`, the EC50 [9] is reported as 9.92 µM (active), the EC50 (H4) is reported as > 120 µM (not active) and the IC50 [10] is reported as 1.52 µM (active). The EC50 [11] was > 120 µM (not active).
In the case of `CC1CN(C2=C(Cl)C(=O)N(c3ccc(Cl)c(Cl)c3)C2=O)CCN1` (configuration not stated), the IC50 (Bcl-2-related protein A1 [12]) is reported as 1.95 µM (active), the IC50 (Bcl-2-related protein A1 [13]) is reported as 6.96 µM (active) and the IC50 [14] is reported as > 100 µM (not active).
